“Also recorded” adds a separate entry of the source.
System: NCOA7
Format: cell-based, human
Conditions: ECs, FIGS. 3A-3B

`N#CCNC(=O)c1ccc(-c2ccnc(Nc3ccc(N4CCOCC4)cc3)n2)cc1` [momelotinib, Momelotinib] was tested, and the “NCOA7 expression (IL-1β-mediated upregulation of NCOA7)” value was “abrogated the IL-1β-mediated upregulation of NCOA7; also recorded: attenuates NCOA7 expression”.

Reference: patent US11773391B2, “Therapeutic and diagnostic target for SARS-CoV-2 and COVID-19” (priority 2020, dated 2023)
